Data reported in patent US11613542B2, “Sulfonylureas and sulfonylthioureas as NLRP3 inhibitors” (Inflazome Limited, priority 2017, dated 2023).
Where a name gives a salt, the structure may show the parent alone.

Tested on: not listed separately
Experiment: Pharmacokinetic parameters in male Sprague Dawley rats (intravenous and oral administration)
Format: in vivo
Details: intravenous administration, rat plasma; dose per compound (mg/kg)
Description: Pharmacokinetic parameters were determined in male Sprague Dawley rats (Charles River, UK, 250-350 g; or Vital River Laboratory Animal Technology Co Ltd, Beijing, China, 7-9 weeks old). Animals were individually housed during the study and maintained under a 12 h light/dark cycle. Animals had free access to food and water except that some orally dosed animals were food deprived overnight prior to the study.
For intravenous administration, compounds were formulated as a solution in water or DMSO:PBS [10:90] in 2 mL/kg dosing volume and administered via tail vein. For oral administration, compounds were formulated as a solution in water or DMSO:water [10:90] in 5 mL/kg dosing volume and administered orally.
Serial blood samples (about 120-300 μL) were taken from each animal at each of 8 time-points post dose (0.083, 0.25, 0.5, 1, 2, 4, 8 and 24 h) or at each of 12 time-points post dose (0.03, 0.1, 0.17, 0.25, 0.5, 1, 2, 4, 6, 8,12 and 24 h) or pre-dose and at each of 9 time-points post dose (0.25, 0.5, 1, 2, 4, 6, 8, 12 and 24 h). Samples were held on ice for no longer than 30 minutes before centrifugation (10,000 rpm (8,385 g) for 3 minutes; or 5,696 rpm (3,000 g) for 15 minutes) for plasma generation. Plasma was frozen on dry ice prior to bioanalysis. PK parameters were generated from LC-MS/MS data using Dotmatics or Phoenix WinNonlin 6.3 software.

AUC [ng·h/mL]	Cl [mL/min/kg]	T1/2 [h]	Vdss [L/kg]	SMILES
274.4	60.7	6.3	3.95	CC(C)c1cc(F)cc(-c2cccnc2)c1NC(=O)NS(=O)(=O)c1cc(C(=O)N(C)C)n(C)n1 [Example 141, 3-(N-((4-Fluoro-2-isopropyl-6-(pyridin-3-yl)phenyl)carbamoyl)sulfamoyl)-N,N,1-trimethyl-1H-pyrazole-5-carboxamide, sodium salt]
353.3	160.9	1.3	10.55	CC(C)c1cc(Cl)cc(C(C)C)c1NC(=O)NS(=O)(=O)c1cc(C(=O)N(C)C)n(C)n1 [Example 168, 3-(N-((4-Chloro-2,6-diisopropylphenyl)carbamoyl)sulfamoyl)-N,N,1-trimethyl-1H-pyrazole-5-carboxamide]

Target: NLRP3 (Homo sapiens, UniProt Q96P20)
Experiment: THP-1 cells pyroptosis assay
Format: cell-based
Design: Seed THP-1 cells (25,000 cells/well) containing 1.0 μg/ml LPS; host or cells: THP-1 cells, LPS-primed, nigericin-stimulated
Details: THP-1 cells, 1.0 μg/ml LPS, compound 3 hrs, nigericin 5 μM 1 hr, resazurin readout; read-out: THP IC50
Source text: NLRP and Pyroptosis It is well established that the activation of NLRP3 leads to cell pyroptosis and this feature plays an important part in the manifestation of clinical disease (Yan-gang Liu et al., Cell Death &Disease, 2017, 8(2), e2579; Alexander Wree et al., Hepatology, 2014, 59(3), 898-910; Alex Baldwin et al., Journal of Medicinal Chemistry, 2016, 59(5), 1691-171; Ema Ozaki et al., Journal of Inflammation Research, 2015, 8, 15-27; Zhen Xie & Gang Zhao, Neuroimmunology Neuroinflammation, 2014, 1(2), 60-65; Mattia Cocco et al., Journal of Medicinal Chemistry, 2014, 57(24), 10366-10382; T. Satoh et al., Cell Death &Disease, 2013, 4, e644). Therefore, it is anticipated that inhibitors of NLRP3 will block pyroptosis, as well as the release of pro-inflammatory cytokines (e.g. […]) from the cell. THP-1 Cells: Culture and Preparation THP-1 cells (ATCC #TIB-202) were grown in RPMI containing L-glutamine (Gibco #11835) supplemented with imM sodium pyruvate (Sigma #S8636) and penicillin (100 units/ml)/streptomycin (0.1 mg/ml) (Sigma #P4333) in 10% Fetal Bovine Serum (FBS) (Sigma #Fo804). The cells were routinely passaged and grown to confluency (˜10^6 cells/ml). On the day of the experiment, THP-1 cells were harvested and resuspended into RPMI medium (without FBS). The cells were then counted and viability (>90%) checked by Trypan blue (Sigma #T8154). Appropriate dilutions were made to give a concentration of 625,000 cells/ml. To this diluted cell solution was added LPS (Sigma #L4524) to give a […] Final Assay Concentration (FAC). 40 μl of the final preparation was aliquoted into each well of a 96-well plate. The plate thus prepared was used for compound screening. THP-1 Cells Pyroptosis Assay The following method step-by-step assay was followed for compound screening. • 1. Seed THP-1 cells (25,000 cells/well) containing 1.0 μg/ml LPS in 40 μl of RPMI medium (without FBS) in 96-well, black walled, clear bottom cell culture plates coated with poly-D-lysine (VWR #734-0317) • 2. Add […] compound (8 points half-log dilution, with 10 μM top dose) or vehicle (DMSO 0.1% FAC) to the appropriate wells • 3. […] Add 5 μl nigericin (Sigma #N7143) (FAC 5 μM) to all wells • 5. […] At the end of the incubation period, spin plates at 300 xg for 3 mins and remove supernatant • 7. Then add 50 μl of resazurin (Sigma #R7017) (FAC 100μ M resazurin in RPMI medium without FBS) and incubate plates for a further 1-2 hrs at 37° C. and 5% CO2 • 8. Plates were read in an Envision reader at Ex 560 nm and Em 590 nm • 9. IC50 data is fitted to a non-linear regression equation (log inhibitor vs response-variable slope 4-parameters) [table]

Sequence of NLRP3 (Q96P20 whole entry): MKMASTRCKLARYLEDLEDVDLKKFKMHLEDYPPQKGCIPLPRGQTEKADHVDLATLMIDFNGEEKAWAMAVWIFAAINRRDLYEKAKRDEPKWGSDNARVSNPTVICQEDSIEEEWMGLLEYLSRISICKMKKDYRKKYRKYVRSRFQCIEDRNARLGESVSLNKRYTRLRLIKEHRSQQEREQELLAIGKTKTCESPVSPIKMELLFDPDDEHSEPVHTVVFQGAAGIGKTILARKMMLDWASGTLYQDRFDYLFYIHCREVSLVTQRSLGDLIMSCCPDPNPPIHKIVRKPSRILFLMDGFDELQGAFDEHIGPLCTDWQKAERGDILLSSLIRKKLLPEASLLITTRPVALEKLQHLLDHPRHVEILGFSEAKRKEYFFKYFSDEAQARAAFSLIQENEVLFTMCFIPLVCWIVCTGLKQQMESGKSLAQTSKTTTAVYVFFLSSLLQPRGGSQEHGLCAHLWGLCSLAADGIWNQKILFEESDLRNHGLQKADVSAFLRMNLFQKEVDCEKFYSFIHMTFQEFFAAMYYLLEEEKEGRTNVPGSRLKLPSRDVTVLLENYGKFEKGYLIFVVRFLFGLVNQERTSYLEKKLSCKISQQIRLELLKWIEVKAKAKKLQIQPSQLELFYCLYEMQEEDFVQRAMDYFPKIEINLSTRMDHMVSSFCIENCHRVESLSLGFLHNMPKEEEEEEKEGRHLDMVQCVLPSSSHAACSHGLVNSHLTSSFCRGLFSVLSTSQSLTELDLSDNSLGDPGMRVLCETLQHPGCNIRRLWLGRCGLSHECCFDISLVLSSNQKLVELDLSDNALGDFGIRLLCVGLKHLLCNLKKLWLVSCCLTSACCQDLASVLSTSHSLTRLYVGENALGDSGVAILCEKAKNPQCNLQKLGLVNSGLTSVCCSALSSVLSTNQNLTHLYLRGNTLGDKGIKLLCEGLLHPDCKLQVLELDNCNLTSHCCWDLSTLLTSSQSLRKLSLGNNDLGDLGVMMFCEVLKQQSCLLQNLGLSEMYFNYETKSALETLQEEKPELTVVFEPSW

SMILES	IC50 [nM]
CN1CCn2nc(S(=O)(=O)NC(=O)Nc3c4c(cc5c3CCC5)CCC4)cc2C1=O [Example 5, N-((1,2,3,5,6,7-Hexahydro-s-indacen-4-yl)carbamoyl)-5-methyl-4-oxo-4,5,6,7-tetrahydropyrazolo[1,5-a]pyrazine-2-sulfonamide, sodium salt]	< 10000
CC(C)c1cc(F)cc(C(C)C)c1NC(=O)NS(=O)(=O)c1ccn(CCN(C)C)n1 [Example 16, 1-(2-(Dimethylamino)ethyl)-N-((4-fluoro-2,6-diisopropyl-phenyl)carbamoyl)-1H-pyrazole-3-sulfonamide]	< 10000
O=C(Nc1c2c(cc3c1CCC3)CCC2)NS(=O)(=O)c1ccn(-c2ccccn2)n1 [Example 119, N-((1,2,3,5,6,7-Hexahydro-s-indacen-4-yl)carbamoyl)-1-(pyridin-2-yl)-1H-pyrazole-3-sulfonamide, sodium salt]	< 2560
O=C(Nc1c2c(cc3c1CCC3)CCC2)NS(=O)(=O)c1ccn(-c2nccs2)n1 [Example 120, N-((1,2,3,5,6,7-Hexahydro-s-indacen-4-yl)carbamoyl)-1-(thiazol-2-yl)-1H-pyrazole-3-sulfonamide, sodium salt]	< 2560
O=C(Nc1c2c(cc3c1CCC3)CCC2)NS(=O)(=O)c1ccn(-c2cccnc2)n1 [Example 121, N-((1,2,3,5,6,7-Hexahydro-s-indacen-4-yl)carbamoyl)-1-(pyridin-3-yl)-1H-pyrazole-3-sulfonamide]	< 2560
COCCN(C)Cc1cc(S(=O)(=O)NC(=O)Nc2c(C(C)C)cc(F)cc2C(C)C)nn1C [Example 125, N-((4-Fluoro-2,6-diisopropylphenyl)carbamoyl)-5-(((2-methoxyethyl)(methyl)amino)methyl)-1-methyl-1H-pyrazole-3-sulfonamide, sodium salt]	< 2560
CC(C)c1cc(Cl)cc(C(C)C)c1NC(=O)NS(=O)(=O)c1cc(CN2CCOCC2)n(C)n1 [Example 127, N-((4-Chloro-2,6-diisopropylphenyl)carbamoyl)-1-methyl-5-(morpholinomethyl)-1H-pyrazole-3-sulfonamide, sodium salt]	< 2560
Cn1nc(S(=O)(=O)NC(=O)Nc2c3c(cc4c2CCC4)CCC3)cc1CN1CCOCC1 [Example 128, N-((1,2,3,5,6,7-Hexahydro-s-indacen-4-yl)carbamoyl)-1-methyl-5-(morpholinomethyl)-1H-pyrazole-3-sulfonamide]	< 2560
CC(C)c1ccc(-c2cncnc2)cc1NC(=O)NS(=O)(=O)c1cc(C(=O)N(C)C)n(C)n1 [Example 134, 3-(N-((2-Isopropyl-5-(pyrimidin-5-yl)phenyl)carbamoyl)sulfamoyl)-N,N,1-trimethyl-1H-pyrazole-5-carboxamide, sodium salt]	< 2560
CC(C)c1ccc(-c2cnn(C)c2)cc1NC(=O)NS(=O)(=O)c1cc(C(=O)N(C)C)n(C)n1 [Example 136, 3-(N-((2-Isopropyl-5-(1-methyl-1H-pyrazol-4-yl)phenyl)carbamoyl)sulfamoyl)-N,N,1-trimethyl-1H-pyrazole-5-carboxamide, sodium salt]	< 2560
CC(C)NC(=O)c1cc(S(=O)(=O)NC(=O)Nc2c(C(C)C)cccc2C(C)C)nn1C [Example 138, 3-(N-((2,6-Diisopropylphenyl)carbamoyl)sulfamoyl)-N-isopropyl-1-methyl-1H-pyrazole-5-carboxamide]	< 10000

The next lines start with the values.

IC50 [nM]	SMILES
< 160	CC(c1cc(S(=O)(=O)NC(=O)Nc2c3c(cc4c2CCC4)CCC3)nn1C)N1CCC1 (single isomer, unassigned) [Example 46, 5-(1-(Azetidin-1-yl)ethyl)-N-((1,2,3,5,6,7-hexahydro-s-indacen-4-yl)carbamoyl)-1-methyl-1H-pyrazole-3-sulfonamide, sodium salt]
< 160	CC(c1cc(S(=O)(=O)NC(=O)Nc2c3c(cc4c2CCC4)CCC3)nn1C)N1CCC1 (single isomer, unassigned) [Example 47, 5-(1-(Azetidin-1-yl)ethyl)-N-((1,2,3,5,6,7-hexahydro-s-indacen-4-yl)carbamoyl)-1-methyl-1H-pyrazole-3-sulfonamide, sodium salt]
< 2560	CC(=O)N1CC(n2ccc(S(=O)(=O)NC(=O)Nc3c4c(cc5c3CCC5)CCC4)n2)C1 [Example 4, 1-(1-Acetylazetidin-3-yl)-N-((1,2,3,5,6,7-hexahydro-s-indacen-4-yl)carbamoyl)-1H-pyrazole-3-sulfonamide]
< 2560	O=C(Nc1c2c(cc3c1CCC3)CCC2)NS(=O)(=O)c1ccn(Cc2ncccn2)n1 [Example 22, N-((1,2,3,5,6,7-Hexahydro-s-indacen-4-yl)carbamoyl)-1-(pyrimidin-2-ylmethyl)-1H-pyrazole-3-sulfonamide]
< 2560	CN1CCC(n2ccc(S(=O)(=O)NC(=O)Nc3c4c(cc5c3CCC5)CCC4)n2)CC1 [Example 31, N-((1,2,3,5,6,7-Hexahydro-s-indacen-4-yl)carbamoyl)-1-(1-methylpiperidin-4-yl)-1H-pyrazole-3-sulfonamide]
< 2560	CN(C)CCCn1ccc(S(=O)(=O)NC(=O)Nc2c3c(cc4c2CCC4)CCC3)n1 [Example 32, 1-(3-(Dimethylamino)propyl)-N-((1,2,3,5,6,7-hexahydro-s-indacen-4-yl)carbamoyl)-1H-pyrazole-3-sulfonamide]
< 640	CC(C)c1cc(F)cc(C(C)C)c1NC(=O)NS(=O)(=O)c1cc(CN(C)CCO)n(C)n1 [Example 123, N-((4-Fluoro-2,6-diisopropylphenyl)carbamoyl)-5-(((2-hydroxyethyl)(methyl)amino)methyl)-1-methyl-1H-pyrazole-3-sulfonamide]
< 640	CC(C)c1cc(F)cc(C(C)C)c1NC(=O)NS(=O)(=O)c1cc(C(=O)N2CCC2)n(C(C)C)n1 [Example 130, 5-(azetidine-1-carbonyl)-N-((4-fluoro-2,6-diisopropylphenyl)carbamoyl)-1-isopropyl-1H-pyrazole-3-sulfonamide]
